Test results published in US20030139371A1, “Drug for combating sexual dysfunctions” (priority 2000, published 2003).

What was measured:
[1] = tested on: isolated rabbit corpus cavernosum; test: Isolated rabbit corpus cavernosum in organ chambers, sex not specified or both sexes; settings: for potentiation of the relaxant effect of purine by the NSAID: NSAID in place of aspirin, combined with purine
Description: The in vitro model we used was that of the isolated rabbit corpus cavernosum in organ chambers. […] In fact, the best correlations with the results found in humans have been found in the rabbit; see, e.g., Bush P. A., Aronson W. J., Buga G. M., Rajfer J., Ignarro L. J., J. Urol. 147(6); 1650-1655 (1992); Knispel H. H., Goessel C., Bechman R., Urol. Res. 20(4); 253-257 (1992); Holmquist F., Hedlund H., Andersson K. E., J. Physiol. (London) 449; 295-311 (1992); and Cellek S., Moncada S., Proc. Natl. Acad. Sci. USA 94(15); 8226-8231 (1997).
The relaxant action of purines was studied in this model either with purines alone or with an inhibitor of NO synthesis (N-omega-nitro-L-arginine, or L-NNA) so as to investigate whether the regulation by purines of the production of NO is a component of the relaxant effect of purines.
In a similar manner, we investigated whether the presence of an inhibitor of the synthesis of prostaglandins (cyclooxygenase inhibitor) modified the effects of purine. If the action of purine could be explained in part by an indirect effect via prostaglandins, we would expect to see a decrease in the effect of purine in the presence of the cyclooxygenase inhibitor.
This study was performed in vitro on corpus cavernosum smooth muscles from male and female rabbits. The technique is that of organ chambers.
The study was performed on male and female rabbits.

[2] = tested on: corpus cavernosum smooth muscle from male rabbits; test: Relaxation of phenylephrine-precontracted corpus cavernosum smooth muscle in organ chambers, male rabbits; design: species or system rabbit; settings: for relaxation of the corpus cavernosum smooth muscle in the presence of aspirin / relaxation of the corpus cavernosum smooth muscle: male rabbits, after phenylephrine precontraction; for relaxation of the corpus cavernosum smooth muscle in the presence of aspirin: purine 10^-3M combined with aspirin 10^-3M; for relaxation of the corpus cavernosum smooth muscle: purine alone at 10^-3M
[3] = tested on: corpus cavernosum smooth muscle from female rabbits; test: Relaxation of phenylephrine-precontracted corpus cavernosum smooth muscle in organ chambers, female rabbits; design: species or system rabbit; settings: after phenylephrine precontraction; for relaxation of the corpus cavernosum in the presence of aspirin: purine 10^-3M in the presence of aspirin; for relaxation of the corpus cavernosum: purine alone at 10^-3M

Cc1cccc(Nc2ccccc2C(=O)O)c1C [mefenamic acid]
potentiation of the relaxant effect of purine by the NSAID [1]: confirmed

CC(=O)Oc1ccccc1C(=O)O [aspirin, acetylsalicylic acid, reference compound]
vasoactivity of the NSAID by itself on this model ([2]; aspirin alone): not vasoactive

Nc1ncnc2c1ncn2[C@@H]1O[C@H](COP(=O)(O)O)[C@@H](O)[C@H]1O [AMP]
relaxation of the corpus cavernosum smooth muscle in the presence of aspirin [2]: 92% | relaxation of the corpus cavernosum smooth muscle [2]: 70% | relaxation of the corpus cavernosum in the presence of aspirin [3]: 36% | relaxation of the corpus cavernosum [3]: 20%

O=C(O)c1ccccc1O [salicylic acid]
potentiation of the relaxant effect of purine by the NSAID [1]: confirmed

Nc1ncnc2c1ncn2[C@@H]1O[C@H](COP(=O)(O)OP(=O)(O)OP(=O)(O)O)[C@@H](O)[C@H]1O [ATP, adenosine triphosphate]
relaxation of the corpus cavernosum smooth muscle in the presence of aspirin [2]: 57% | relaxation of the corpus cavernosum smooth muscle [2]: 35% | relaxation of the corpus cavernosum in the presence of aspirin [3]: 50% | relaxation of the corpus cavernosum [3]: 31%

NC(=NCCC[C@H](N)C(=O)O)N[N+](=O)[O-] [L-NNA, N-omega-nitro-L-arginine]
decrease of the relaxant effect of purine in the presence of an inhibitor of NO synthesis ([1]; compared with purine alone): about 15%

COc1ccc2c(c1)c(CC(=O)O)c(C)n2C(=O)c1ccc(Cl)cc1 [indomethacin]
potentiation of the relaxant effect of purine by the NSAID [1]: confirmed
